Data on five compounds can be found in patent publication US11807646B2, “4-hydroxypiperidine derivatives and their use as inhibitors of ubiquitin specific protease 19 (USP19)” (ALMAC DISCOVERY LIMITED, priority 2018, dated 2023).

For orientation: IC50 means the midpoint of a concentration-inhibition curve.

Chain of USP19 (O94966 whole entry): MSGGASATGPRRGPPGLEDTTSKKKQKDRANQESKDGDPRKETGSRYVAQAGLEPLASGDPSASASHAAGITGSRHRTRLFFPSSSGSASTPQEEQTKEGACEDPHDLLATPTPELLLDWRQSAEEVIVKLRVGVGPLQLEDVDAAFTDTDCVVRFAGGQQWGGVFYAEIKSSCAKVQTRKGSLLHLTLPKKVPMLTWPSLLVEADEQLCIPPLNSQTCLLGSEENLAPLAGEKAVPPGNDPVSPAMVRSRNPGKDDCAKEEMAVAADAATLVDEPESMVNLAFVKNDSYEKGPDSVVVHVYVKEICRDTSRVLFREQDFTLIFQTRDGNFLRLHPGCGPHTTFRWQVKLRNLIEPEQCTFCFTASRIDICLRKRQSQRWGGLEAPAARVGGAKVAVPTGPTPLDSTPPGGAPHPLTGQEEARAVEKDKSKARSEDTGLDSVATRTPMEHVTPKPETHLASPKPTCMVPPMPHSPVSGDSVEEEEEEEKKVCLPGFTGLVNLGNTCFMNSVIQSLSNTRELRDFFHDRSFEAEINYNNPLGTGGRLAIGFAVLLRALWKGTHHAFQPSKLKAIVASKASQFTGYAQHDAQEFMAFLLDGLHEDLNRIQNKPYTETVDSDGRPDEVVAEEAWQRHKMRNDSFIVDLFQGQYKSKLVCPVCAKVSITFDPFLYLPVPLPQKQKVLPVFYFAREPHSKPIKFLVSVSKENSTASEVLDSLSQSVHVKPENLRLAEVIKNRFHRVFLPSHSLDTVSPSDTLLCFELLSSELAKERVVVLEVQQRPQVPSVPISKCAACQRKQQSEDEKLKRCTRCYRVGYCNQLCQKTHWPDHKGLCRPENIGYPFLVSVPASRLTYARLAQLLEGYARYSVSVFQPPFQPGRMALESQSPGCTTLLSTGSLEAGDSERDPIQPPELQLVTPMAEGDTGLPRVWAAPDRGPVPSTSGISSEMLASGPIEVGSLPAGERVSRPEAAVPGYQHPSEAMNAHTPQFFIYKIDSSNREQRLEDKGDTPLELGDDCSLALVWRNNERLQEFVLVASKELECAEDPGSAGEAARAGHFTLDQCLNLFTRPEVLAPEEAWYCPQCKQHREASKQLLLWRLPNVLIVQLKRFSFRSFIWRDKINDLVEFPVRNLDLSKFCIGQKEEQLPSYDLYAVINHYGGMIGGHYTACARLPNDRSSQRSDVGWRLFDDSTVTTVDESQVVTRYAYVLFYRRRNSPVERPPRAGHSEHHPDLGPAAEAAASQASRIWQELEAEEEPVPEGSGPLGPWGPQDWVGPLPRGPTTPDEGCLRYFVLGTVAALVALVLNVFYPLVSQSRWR

In this test the target is USP19 (Homo sapiens (Human), UniProt O94966). The test can be described thus: USP19 fluorescence polarization (FP) homogeneous assay with Ubiquitin-Lys-TAMRA substrate. It counts as biochemical. The note with it: full-length USP19 2.5 nM, Ub substrate 500 nM, 30 min pre-incubation at rt; average of at least two duplicate experiments. On the procedure:
Unless otherwise stated, all other reagents were purchased from Sigma. Enzymatic reactions were conducted in black flat bottom polystyrene 384-well plates (Nunc) and 30 μL total volume. […] Inhibitors were stored as 10 mM DMSO stocks in an inert environment (low humidity, dark, low oxygen, room temperature) using the Storage Pod System and serial dilutions were prepared in buffer just prior to the assay (from 200 μM to 2 pM, 8-18 data point curve). Following incubation at rt for 30 min, the enzymatic reactions were initiated by dispensing the Ub substrate (500 nM, 10 μL). FP was measured every 15 min over a period of 90 min (within the linear range of the assay) using a Synergy 4 plate reader (BioTek) exciting at 530 nm and measuring the amount of parallel and perpendicular light at 575 nm. The FP signal was subsequently normalized to the no compound control.
(In general: Polarisation of emitted light reports the rotation of a fluorescent probe.)
For the compound `CC(CC(=O)N1CCC(O)(CN2CC(Cc3ccccc3)CC2=O)C(C)(C)C1)c1ccccc1` (centres unmarked) [Example 44, 4-Benzyl-1-((4-hydroxy-3,3-dimethyl-1-(3-phenylbutanoyl)piperidin-4-yl)methyl)pyrrolidin-2-one], the IC50 lay within 50 to 250 µM.
With `C[C@H](CC1CCCCC1)C(=O)N1CC[C@](O)(Cn2cc(N=S(C)(C)=O)c(-c3ccccc3F)cc2=O)C(C)(C)C1` [Example 65, 1-(((R)-1-((R)-3-Cyclohexyl-2-methylpropanoyl)-4-hydroxy-3,3-dimethylpiperidin-4-yl)methyl)-5-((dimethyl(oxo)-λ^6-sulfaneylidene)amino)-4-(2-fluorophenyl)pyridin-2(1H)-one] the figure was 50 to 250 µM.
For `C[C@H](CC1CCCCC1)C(=O)N1CC[C@@](O)(Cn2cc(N=S(C)(C)=O)c(-c3ccccc3F)cc2=O)C(C)(C)C1` [Example 66, 1-(((S)-1-((R)-3-Cyclohexyl-2-methylpropanoyl)-4-hydroxy-3,3-dimethylpiperidin-4-yl)methyl)-5-((dimethyl(oxo)-λ^6-sulfaneylidene)amino)-4-(2-fluorophenyl)pyridin-2(1H)-one], the IC50 is 0.5 to 5 µM.
Under `O=C1COCCN1CC1(O)CCN(C(=O)N2CCOC[C@H]2c2ccccc2)CC12CCCC2` (stereo partly drawn) [Example 117, 4-((10-Hydroxy-7-((R)-3-phenylmorpholine-4-carbonyl)-7-azaspiro[4.5]decan-10-yl)methyl)morpholin-3-one] stands 0.5 to 5 µM; under `C[C@H](CC(F)(F)F)C(=O)N1CCC(O)(Cn2ccc3ccc(F)cc3c2=O)C2(CCCC2)C1` (stereo partly drawn) [Example 135, 7-Fluoro-2-((10-hydroxy-7-((R)-4,4,4-trifluoro-2-methylbutanoyl)-7-azaspiro[4.5]decan-10-yl)methyl)isoquinolin-1(2H)-one], 5 to 50 µM.
